{
  "source": "patent US6410545B1",
  "about": "“Lipid lowering quinazoline dietary supplement composition” (Parker Hughes Institute, priority 1998, dated 2002)",
  "key": {"C57B⅙ mice [1]": {"system": "C57B⅙ mice", "assay": "In vivo hepatic VLDL-TG production using Triton WR1339 in C57B⅙ mice", "experimental": "(§1) C57B⅙ and apoE-deficient mice were treated with intraperitoneal injections of 50 μl vehicle or 40 mg/kg WHI-P164 in 50 μl vehicle for 7 consecutive days, followed by a 36 hour fast to shut down intestinal chylomicron synthesis. […] Blood samples were taken at 0 and 4 hours after Triton WR1339 injection and plasma TG levels were measured enzymatically using a commercially available enzymatic kit (Sigma Chemical Co.). Alternatively, food was returned to the mice after a 36 hour fast and blood samples were collected at 0, 1, 3, 6, and 9 hours after returning the food. Accumulation of chylomicron-TG was determined as accumulation of plasma TG.\nTo determine if WHI-P164 prevent hepatic TG accumulation by relieving 9 block in VLDL-TG secretion or by inhibiting upstream TG synthesis, in vivo hepatic VLDL-TG synthesis was analyzed. Synthesis was determined by following the accumulation of VLDL-TG after shutting down VLDL catabolism with Triton WR1339 injection and intestinal chylomicron synthesis with a 36 hours fast.\nC57B⅙ and apoE-deficient mice were treated with intra peritoneal injections of vehicle or 40 mg/kg WHI-P164 (in 50 μl vehicle) for 7 consecutive days, followed by a 36 hour fast to shut down intestinal chylomicron synthesis. […] Blood samples (50 μl) were taken at 0 and 4 hours after Triton WR1339 injection and plasma TG was measured enzymatically using a commercially available enzymatic kit (Sigma Chemical Co.), as previously reported (Kuipers, supra)."}, "apo e−/− mice": {"system": "apo e−/− mice", "assay": "Hepatic and plasma lipids (Oil Red O staining, tissue lipid extraction) in apo e−/− mice on Western diet", "type": "in vivo", "details": "40 mg/kg/day for 1 week", "experimental": "(§2) Serum total cholesterol was measured enzymatically using the cholesterol kit from Sigma Chemical Co. (St. Louis, Mo., USA). For liver tissue lipid measurements, lipids were extracted from homogenized hepatic tissues using the method of Bligh and Dyer (Bligh, et al., Can. J. Biochem. Phys. 1959, 37:911-917). One gram of liver tissue was homogenized in 1 ml of distilled water and extracted with 4 ml of chloroform/methanol (1:1, v/v). The chloroform phase containing the lipids was evaporated under a stream of nitrogen, the lipids dissolved in 100 μL of isopropanol, and subjected to cholesterol determination as described above. Triglyceride (TG) contents were determined using the TG kit from Sigma Chemical Co.\nAt the end of the experiment, the animals were sacrificed and the harvested tissues were fixed in 10% phosphate buffered formalin overnight, embedded, sectioned, and stained by hematoxylin and eosin (H&E). The stained sections were examined for pathological changes. For Oil Red O staining, the liver was excised and snap frozen in liquid nitrogen. Five micrometer thick sections were obtained using the LeicaCM1800 cryostat (Heerbrugg, Switzerland), stained in 0.5% Oil Red O in propylene glycol for 1 hour, destained in 85% propylene glycol for 1 minute, rinsed twice in distilled water, counterstained in Mayer's hematoxylin for a few seconds, rinsed twice in distilled water, and mounted in Crystalmount (Biomedia Corp., Foster City, Calif.). The Oil Red O stainable material at 400 X magnification was quantitated using the ImagePro plus program (Media Cybernetics, Silver Spring, Md., USA) in conjunction with a 3CCD camera (DAGE-MTI Inc., Michigan City, USA).\napo e^−/− mice accumulate large amounts of TG-rich lipid droplets in their livers, due a blocked VLDL-TG secretion (Kuipers et al., 1997, J. Clin. Invest. 100:2915-2922). […] When tissue lipids were measured, there was a 22% reduction in hepatic cholesterol 39% reduction in hepatic triglycerides."}, "C57B⅙ mice [2]": {"system": "C57B⅙ mice", "assay": "Postprandial triglyceride accumulation after 36 hour fast", "type": "in vivo", "details": "40 mg/kg/day for 7 days", "experimental": "FIG. 5 is a graph showing inhibition of postprandial triglyceride accumulation by WHI-P164 treatment. C57B⅙ mice were treated with WHI-P164 at 40 mg/kg/day for 7 days, and fasted 36 hours with continuing treatment. […].\nas §1\nInhibition reached statistical significance at 6 hours in vehicle treated mice having a plasma TG level of 272±25 mg/dL, n=5, as compared to a plasma TG level of 155±32 mg/dL, n=5, p=0.004 in WHI-P164 treated mice."}, "[3]": {"system": "hypercholesterolemic C57B⅙ mice", "assay": "Serum total cholesterol in hypercholesterolemic C57B⅙ mice on Paigen's cocoa butter diet", "type": "in vivo", "details": "1.6 mg/kg/day", "experimental": "Three- to four-week old C57B⅙ male mice (Taconic, Germantown, N.Y., USA) were kept in micro-isolator cages on a 12-hour day/night cycle and fed the Paigen's cocoa butter diet (15.8% fat, 1.25% cholesterol, and 0.5% sodium cholate) (Harlan Teklad, Madison, Wis., USA) for two weeks prior to initiation of lipid lowering therapy. Paigen's diet is described in Nishina et.al., 1993, J. Lipid Res. 34: 1413-1422.\nAnimals were treated with test compounds by intraperitoneal injection daily for 7 days. A range of doses was administered. Control animals received vehicle alone. The effect of quinazoline derivatives on total cholesterol, LDL, HDL, liver enzymes, and glucose was analyzed. The mice tissues were also examined histologically.\nas §2\nA high cholesterol and high fat diet was used to induce hypercholesterolemia in C57B⅙mice, using the methods described by Paigen, et al. (Nishina, et al., 1993, J. Lipid Res. 34:1413-1422) and as described for Example 1."}},
  "note": "Values joined by “and” are separate entries in the source; they are usually repeats but may differ in a detail not shown here. Equal values may be shown once. “Also recorded” adds a separate entry of the source.",
  "data": [
    {"smiles": "COc1cc2ncnc(C(=O)c3cccc(Br)c3)c2cc1OC", "note": "[WHI-P164, 4-(3′-bromobenzoyl)-6,7-dimethoxyquinazoline]", "values": [
      {"measurement": "Accumulation of VLDL-TG after Triton WR1339 treatment", "setting": "C57B⅙ mice [1]; C57B⅙ mice, 40 mg/kg, versus vehicle", "value": "significantly less accumulation of VLDL-TG than vehicle-treated control mice"},
      {"measurement": "Triglyceride, Pre-Triton WR 1339", "setting": "C57B⅙ mice [1]; apo e+/+ (C57B1/6), 40 mg/kg i.p. 7 days, 36 hour fast", "value": "124 ± 12 (n = 5) mg/dL"},
      {"measurement": "Triglyceride, Post-Triton WR 1339", "setting": "C57B⅙ mice [1]; apo e+/+ (C57B1/6), 40 mg/kg i.p. 7 days, 36 hour fast, 4 hours after Triton WR1339", "value": "1031 ± 95 (n = 8) mg/dL"},
      {"measurement": "Oil Red O stainable lipid material in liver", "setting": "apo e−/− mice", "value": "658±256", "unit": "red pixels/field"},
      {"measurement": "hepatic cholesterol", "setting": "apo e−/− mice", "value": "51.4 ± 4.4", "unit": "mg/g wet wt"},
      {"measurement": "hepatic triglycerides", "setting": "apo e−/− mice", "value": "211.6 ± 27", "unit": "mg/g wet wt"},
      {"measurement": "plasma FFA", "setting": "apo e−/− mice", "value": "3.6 ± 0.3", "unit": "mM"},
      {"measurement": "plasma TG", "setting": "apo e−/− mice", "value": "165 ± 19", "unit": "mg/dL"},
      {"measurement": "Reduction in hepatic cholesterol", "setting": "apo e−/− mice; versus vehicle", "value": 22, "unit": "%"},
      {"measurement": "Reduction in hepatic triglycerides", "setting": "apo e−/− mice; versus vehicle", "value": 39, "unit": "%"},
      {"measurement": "Reduction of liver lipid material (image analysis)", "setting": "apo e−/− mice; versus vehicle", "value": 75, "unit": "%"},
      {"measurement": "Plasma TG level", "setting": "C57B⅙ mice [2]; 6 hours after returning food to 36 hours fasted mice", "value": "155 ± 32", "unit": "mg/dL"},
      {"measurement": "Postprandial triglyceride accumulation", "setting": "C57B⅙ mice [2]; C57B⅙ mice, fasted 36 hours, versus vehicle, 40 mg/kg/day", "value": "much reduced postprandial triglyceride accumulation; also recorded: Postprandial accumulation was inhibited"},
      {"measurement": "Serum total cholesterol", "setting": "[3]; apo e+/+ C57B1/6 mice, cocoa butter diet two weeks, then drug 1 week at 1.6 mg/kg/day i.p.", "value": "348.6 ± 27.6 mg/dL and 349 ± 28 mg/dL"},
      {"measurement": "Reduction in mean serum total cholesterol", "setting": "[3]; hypercholesterolemic C57B⅙ mice, one week, versus untreated", "value": 23, "unit": "%"}
    ]}
  ]
}
